Experimental data as given in US8173764B2, “Solubilization and targeted delivery of drugs with self-assembling amphiphilic polymers” (AllExcel Inc., priority 2006, dated 2012).
≈ marks a conversion by molar mass, not a printed value. Like-named read-outs stand apart in the source and are kept apart here.

Experiments:
[1] = Method: (§1) The container bottoms were then attached to the bottom of a small jewelry ultrasonic cleaner bath using a water-resistant double-stick tape. Just enough water was added to the bath to immerse the weigh boats to about ⅓rd height. Sonication was performed for 15 minutes in steps of 5 minutes. The liquids were transferred to centrifuge tubes and centrifuged twice for 30 min. in a bench top centrifuge to pellet out undissolved dye. The supernatants were transferred to clean tubes and centrifuged again, to remove entrained solids. Suspensions of same amounts of dyes in same amount of distilled water as the amount of the polymer solution were treated in the same fashion, as controls. The resulting solutions were spotted (25 ul) on TLC plates to form circles from the drops. The intensities of the spots were compared with spots made from standards of dye solutions made in ethanol or ethanol/water to determine approximate concentrations; the spots are shown in FIG. 1. The solubilities of the dyes in water were determined by dissolving appropriate amount of the dye in […] deionized water (unbuffered) at room temperature, and adding (i.e. titrating with) further water as necessary to obtain saturated solutions.
physchem = assay: physchem
Method: as §1

| concentration of dye in 50 mg/ml polymer ([1]; 15 min) | solubility (physchem; water, thermodynamic from solid) | concentration of dye in 50 mg/ml polymer [1] | concentration (solubility) of dye in H2O (physchem) | Compound |
| --- | --- | --- | --- | --- |
| approximately 5 mg/ml | 10 µg/mL (≈ 24.9 µM) |  |  | O=C1OC2(c3cc(Cl)c(O)cc3Oc3cc(O)c(Cl)cc32)c2ccccc21 [Dichlorofluorescein, dichlorofluorescein] |
|  |  | approximately 0.2 mg/ml | 0 µg/mL | Cc1ccccc1/N=N/c1ccc(/N=N/c2c(O)ccc3ccccc23)c(C)c1 [Sudan IV] |
